Earlier results on four compounds are cited in patent US7208487B2, “Compounds, compositions and methods” (Cytokinetics, Incorporated, priority 2002, dated 2007).

The series relates to A549 cells.
Consider `CC(=O)O[C@H]1C(=O)[C@@]2(C)[C@H]([C@H](OC(=O)c3ccccc3)[C@]3(O)C[C@H](OC(=O)[C@H](O)[C@@H](NC(=O)c4ccccc4)c4ccccc4)C(C)=C1C3(C)C)[C@]1(OC(C)=O)CO[C@@H]1C[C@@H]2O` [paclitaxel], for which the GI50 (as a rule, the concentration giving 50% growth inhibition) was 0.004 µM.

Consider `O=c1[nH]cc(F)c(=O)[nH]1` [5-fluorouracil], for which the GI50 was 1 µM.

Consider `COc1cccc2c1C(=O)c1c(O)c3c(c(O)c1C2=O)C[C@@](O)(C(=O)CO)C[C@@H]3O[C@H]1C[C@H](N)[C@H](O)[C@H](C)O1` [doxorubicin], for which the GI50 was 0.063 µM.

Regarding `NC(=O)NO` [hydroxyurea], the 50% growth inhibitory concentration (GI50) is 500 µM.
